Here are results for 3 molecules from patent US10633345B2, “Human plasma kallikrein inhibitors” (BioCryst Pharmaceuticals, Inc., priority 2014, dated 2020).

Assay [1] concerns patients with hereditary angioedema (HAE). The following applies: cited from earlier work.
Assay [2] concerns the target human plasma kallikrein (Homo sapiens (Human), UniProt P03952). The experiment in a line: Plasma kallikrein activity assay (chromogenic substrate S2302). The class given is biochemical. The following applies: 2 nM kallikrein, 80 μM S2302, 30° C., pH 7.8; Cheng-Prusoff; values given as bins.
Method: Plasma Kallikrein Activity Assay.
The effect of compounds of the invention on human plasma kallikrein activity was determined using the chromogenic substrates (DiaPharma Group, Inc., West Chester, Ohio, USA). In these experiments, 2 nM kallikrein (Enzyme Research Laboratories, South Bend, Ind., USA) was incubated with 80 μM S2302 (H-D-Pro-Phe-Arg-p-nitroaniline) in the absence or presence of increasing concentrations of compounds of the invention in a final volume of 200 μL Tris-HCl buffer (200 mM NaCl; 2.5 mM CaCl2; 50 mM Tris-HCl, pH 7.8).
Data were analyzed using SigmaPlot software (Systat Software, Inc., San Jose, Calif., USA) (Four Parameter Logistic Curve).
Assay [3] concerns mouse model of middle cerebral artery occlusion (MCAO). The note with it: cited from earlier work.

Sequence of human plasma kallikrein (P03952 whole entry, looked up): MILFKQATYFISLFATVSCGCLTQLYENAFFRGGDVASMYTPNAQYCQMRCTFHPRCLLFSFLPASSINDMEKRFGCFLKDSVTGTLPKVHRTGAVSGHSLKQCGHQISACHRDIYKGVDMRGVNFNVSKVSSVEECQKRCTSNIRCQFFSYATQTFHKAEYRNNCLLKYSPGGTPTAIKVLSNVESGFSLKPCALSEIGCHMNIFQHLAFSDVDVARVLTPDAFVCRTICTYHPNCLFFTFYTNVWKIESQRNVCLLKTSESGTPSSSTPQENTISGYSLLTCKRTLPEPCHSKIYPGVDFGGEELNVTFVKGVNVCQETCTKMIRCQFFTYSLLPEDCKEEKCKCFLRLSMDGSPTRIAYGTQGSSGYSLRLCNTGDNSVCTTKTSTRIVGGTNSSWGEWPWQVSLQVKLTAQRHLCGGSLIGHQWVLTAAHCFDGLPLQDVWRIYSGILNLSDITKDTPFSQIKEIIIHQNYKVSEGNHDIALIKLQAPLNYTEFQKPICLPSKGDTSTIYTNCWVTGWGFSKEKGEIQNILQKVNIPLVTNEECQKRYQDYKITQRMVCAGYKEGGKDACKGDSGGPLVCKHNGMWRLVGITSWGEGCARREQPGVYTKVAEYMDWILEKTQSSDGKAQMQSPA
Sequence of human plasma kallikrein (P03952 whole entry partner, looked up): as the sequence (P03952 whole entry, looked up) above

In the case of ecallantide [DX-88], the “edema in patients with hereditary angioedema (HAE)” value in assay [1] is “alleviates edema”.
As a reminder, the Ki is a dissociation constant, usually derived from enzyme kinetics or from competition with a known ligand. A lower Ki goes with a stronger hold on the target. In assay [2], `N#Cc1cccc(C(N)(CCC2CC2)c2ccc(F)c(NC(=O)c3cc(C(F)(F)F)nn3-c3cccc(C(N)=O)c3)c2)c1` (single isomer, unassigned; (-)) [Compound 267c, (−)-N-(5-(1-amino-1-(3-cyanophenyl)-3-cyclopropylpropyl)-2-fluorophenyl)-1-(3-carbamoylphenyl)-3-(trifluoromethyl)-1H-pyrazole-5-carboxamide] came in with a Ki above 100 nM.

B1: C1-inhibitor: "a physiological inhibitor (C1-inhibitor)" (protein, UniProt P05155 23-500, looked up)
Plasma protease C1 inhibitor: NPNATSSSSQDPESLQDRGEGKVATTVISKMLFVEPILEVSSLPTTNSTTNSATKITANTTDEPTTQPTTEPTTQPTIQPTQPTTQLPTDSPTQPTTGSFCPGPVTLCSDLESHSTEAVLGDALVDFSLKLYHAFSAMKKVETNMAFSPFSIASLLTQVLLGAGENTKTNLESILSYPKDFTCVHQALKGFTTKGVTSVSQIFHSPDLAIRDTFVNASRTLYSSSPRVLSNNSDANLELINTWVAKNTNNKISRLLDSLPSDTRLVLLNAIYLSAKWKTTFDPKKTRMEPFHFKNSVIKVPMMNSKKYPVAHFIDQTLKAKVGQLQLSHNLSLVILVPQNLKHRLEDMEQALSPSVFKAIMEKLEMSKFQPTLLTLPRIKVTTSQDMLSIMEKLEFFDFSYDLNLCGLTEDPDLQVSAMQHQTVLELTETGVEAAAASAISVARTLLVFEVQQPFLFVLWDQQHKFPVFMGRVYDPRA
With B1, in assay [3], the infarct size result is “reduced”.
